Measured values from patent US11236090B2, “Substituted glutarimides as CDK inhibitors” (SHANGHAI MEIZER PHARMACEUTICALS CO., LTD., priority 2017, dated 2022).

Tests used:
CDK4 [1] = target: T1, CDK4 (Homo sapiens, UniProt P11802); experiment: CDK4 protein degradation activity by Western blot in MCF-7 cells; format: cell-based; design: host or cells: MCF-7; conditions: MCF7, compound 1 μM, 24 hours
Experimental: (§1) Cell lines: MCF-7 cell lines (human breast cancer cells, available from ATCC) were cultured in MEM medium containing 10% calf serum in a 37° C., 5% CO2, and saturated humidity incubator. DMSO control group and compound intervention group (1 μM) were set. Cells were collected after the treatment for 24 hours, then 100 μL of pre-chilled cell lysate was added and cells were lysed on ice for 30 minutes, total cell protein was extracted, and protein concentration was determined and quantified by bicinchoninic acid method. After routine gelatinization, loading, electrophoresis, then transferring to membrane and blocking, rabbit anti-human CDK4 (1:450) and rabbit anti-human CDK6 (1:150) were added and incubated at 4° C. overnight. The mixture was rinsed and then secondary antibody IgG (1:5000) was added. After the rinsing it was developed by the ECL developing solution, the Bio-Rad gel imaging system was used for scanning and imaging, and the computer software was used for analysis. […] (GAPDH) was used as an internal control. Image J software was used to analyze the gray scale of each band to calculate the degradation rate of the compound to degrade CDK4/6 protein.
Target sequence in this assay (P11802 whole entry): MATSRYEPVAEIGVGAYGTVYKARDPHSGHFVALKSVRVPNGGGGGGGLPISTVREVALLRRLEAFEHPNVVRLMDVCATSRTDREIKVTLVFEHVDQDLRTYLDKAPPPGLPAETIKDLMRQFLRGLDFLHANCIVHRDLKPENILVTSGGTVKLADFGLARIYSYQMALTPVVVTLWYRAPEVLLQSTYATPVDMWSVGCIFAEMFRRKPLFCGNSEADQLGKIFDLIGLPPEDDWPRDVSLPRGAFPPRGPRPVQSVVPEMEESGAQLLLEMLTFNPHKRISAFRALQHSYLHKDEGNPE

CDK6 [2] = target: T2, CDK6 (Homo sapiens, UniProt Q00534); experiment: CDK6 protein degradation activity by Western blot in MCF-7 cells; format: cell-based; design: host or cells: MCF-7; conditions: MCF7, compound 1 μM, 24 hours
Experimental: as §1
Target sequence in this assay (Q00534 whole entry): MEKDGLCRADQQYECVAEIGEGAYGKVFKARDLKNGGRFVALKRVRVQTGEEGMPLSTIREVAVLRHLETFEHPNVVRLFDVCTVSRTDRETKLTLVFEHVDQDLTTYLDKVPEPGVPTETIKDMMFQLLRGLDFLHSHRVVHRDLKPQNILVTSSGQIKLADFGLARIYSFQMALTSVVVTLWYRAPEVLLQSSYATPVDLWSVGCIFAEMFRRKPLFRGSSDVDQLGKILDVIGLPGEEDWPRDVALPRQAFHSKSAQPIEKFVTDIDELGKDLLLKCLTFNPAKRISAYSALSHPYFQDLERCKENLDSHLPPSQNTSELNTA

CDK6 [3] = target: T2, CDK6; experiment: CDK6 inhibition by Caliper assay; format: biochemical; conditions: compound 100 nM
Experimental: (§2) The experimental steps were as follows:
(§3) Preparation of 1×kinase reaction buffer (50 mM HEPES, PH 7.5; 0.0015% Brij-35) and kinase reaction termination solution (100 mM HEPES, PH 7.5; 0.0015% Brij-35; 0.2% Coating Reagent; 50 mM EDTA) preparation of experimental samples: 100 μL of 5 μM sample solution (dissolved in 100% DMSO) was added to a 96-well plate to obtain a 50×sample solution. As controls, two wells containing only 100 μL of 100% DMSO were set on the same plate. One was served as a control without samples and the other was served as a control without enzymes. 10 μL of sample and 90 μL of 1×kinase reaction buffer were added to a 96-well plate as a transfer plate. The transfer plate was shaken for 10 minutes.
(§4) Preparation of the test plate: taking 5 μL of each of the prepared samples in the 96-well transfer plate into a 384-well plate. Kinase reaction: to 5 μL of 5×compound solution (dissolved in DMSO, diluted 10 times with water) was added 10 μL of 2.5×CDK4/6 kinase solution (kinase was diluted with 1×kinase reaction buffer), which was incubated at room temperature for 10 min, and then 10 μL of 2.5×substrate peptide solution (FAM-labeled peptide and ATP were diluted with 1×kinase reaction buffer) was added. Termination of the kinase reaction: 25 μL of kinase reaction termination solution was added after being reacted at 28° C. for a period of time. The fluorescence (F) was tested on a Caliper and data was collected. The inhibition rate of kinase activity was calculated: the percent inhibition rate of kinase activity=(FDMSO control−Fsample)/(FDMSO control−Fnegative control)×100%, with DMSO as the solution control, and no kinase as the negative control.
Target sequence in this assay (Q00534 whole entry, species assumed): as the sequence (Q00534 whole entry) above
Target sequence in this assay (P30281 whole entry partner, species assumed): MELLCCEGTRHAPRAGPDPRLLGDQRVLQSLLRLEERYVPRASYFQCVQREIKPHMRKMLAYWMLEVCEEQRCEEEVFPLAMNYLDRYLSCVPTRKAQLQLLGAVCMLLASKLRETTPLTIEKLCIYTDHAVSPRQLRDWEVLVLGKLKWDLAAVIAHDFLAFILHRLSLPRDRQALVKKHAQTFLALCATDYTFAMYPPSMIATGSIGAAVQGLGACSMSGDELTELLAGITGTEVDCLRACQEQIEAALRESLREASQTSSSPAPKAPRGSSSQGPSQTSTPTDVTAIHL

CDK4 [4] = target: T1, CDK4; experiment: CDK4 inhibition by Caliper assay; format: biochemical; conditions: compound 100 nM
Experimental: as §2, §3, §4
Target sequence in this assay (P11802 whole entry, species assumed): as the sequence (P11802 whole entry) above
Target sequence in this assay (P30281 whole entry partner, species assumed): as the sequence (P30281 whole entry partner, species assumed) above

MCF-7 cells = experiment: Inhibition of proliferation of MCF-7 cells by MTT assay; format: cell-based; conditions: Homo sapiens, MCF7, 48 hours
Experimental: The inhibitory effect of the compound on the proliferation of MCF-7 cells (commercially available from ATCC) was determined by the MTT method in vitro. […] Each compound was dissolved in dimethyl sulfoxide (DMSO) to obtain a solution with a concentration of 10 mM, and then diluted to the desired concentration with a phosphate buffer solution. The solution was added to the above 96-well plate. Each concentration has 2 wells with 10 μl per well. Each concentration was tested in duplicate. As a control, DMSO was diluted in the corresponding gradient and then added to the plate. After the 96-well plate was cultured in a 37° C., 5% CO2 cell incubator for 48 hours, 20 μl of MTT solution in 5 mg/ml was added to each well, and it was cultured in the incubator for another 3 to 4 hours. 100 μl of lysate was added to each well and the cells were further incubated overnight in the incubator to fully dissolve the formazan crystals generated. The light absorption value at 492 nm was measured. The relative survival rate of the cells after the compound treatment was calculated based on the light absorption value. The IC50 of the compound against MCF-7 cells was calculated by software.

T47D cells = experiment: Inhibition of proliferation of T47D cells by CCK8 assay; format: cell-based; conditions: Homo sapiens, CCK8, 72 hours
Experimental: The inhibitory effect of the compound on the proliferation of T47D cells (commercially available from ATCC) was determined by the CCK8 method in vitro. The experimental steps were as follows: T47D cells were cultured in 1640 medium of 10% calf serum, seeded in a 96-well plate with 1.5×10^5/ml, and placed in a 37° C., 5% CO2 incubator. Each compound or the positive drug (Ribociclib) was dissolved in dimethyl sulfoxide (DMSO) to obtain a solution with a concentration of 100 mM, and then diluted to the desired concentration with the culture medium. The solutions were then added to the above 96-well plates. Each concentration has 3 wells with 50 μl per well. As a control, DMSO was diluted in the corresponding gradient and then added to the plate. After the 96-well plate was cultured in a 37° C., 5% CO2 cell incubator for 72 hours, 110 μl of CCK8 solution in 9% was added to each well, and it was cultured in the incubator for another 4 hours. The light absorption value at 450 nm was measured. The relative survival rate of the cells after the compound treatment was calculated based on the light absorption value. The IC50 of the compound against T47D cells was calculated by software.

| Dmax at 1 µM (CDK4 [1]) [%] | Dmax at 1 µM (CDK6 [2]) [%] | inhibition at 0.1 µM (CDK6 [3]) [%] | inhibition at 0.1 µM (CDK4 [4]) [%] | IC50 (MCF-7 cells) [nM] | IC50 (T47D cells) [nM] | SMILES |
| --- | --- | --- | --- | --- | --- | --- |
| 50 to 90 | 50 to 90 |  |  |  |  | CC(=O)c1c(C)c2cnc(Nc3ccc(N4CCN(CCCCCCCCOc5cccc6c5C(=O)N(C5CCC(=O)NC5=O)C6=O)CC4)cn3)nc2n(C2CCCC2)c1=O (stereo not drawn) [Compound 25] |
|  |  | 79 | 93 |  |  | CC(=O)c1c(C)c2cnc(Nc3ccc(N4CCN(C(=O)COCCOCCNc5cccc6c5C(=O)N(C5CCC(=O)NC5=O)C6=O)CC4)cn3)nc2n(C2CCCC2)c1=O (stereo not drawn) [Compound 11] |
| > 90 | 50 to 90 | 86 | 97 | 80 | 13700 | CN(C)C(=O)c1cc2cnc(Nc3ccc(N4CCN(CCCCCC(=O)Nc5cccc6c5C(=O)N(C5CCC(=O)NC5=O)C6=O)CC4)cn3)nc2n1C1CCCC1 (stereo not drawn) [Compound 3] |
| > 90 | 50 to 90 |  |  |  |  | CN(C)C(=O)c1cc2cnc(Nc3ccc(N4CCN(CCOCCNC(=O)COc5cccc6c5C(=O)N(C5CCC(=O)NC5=O)C6=O)CC4)cn3)nc2n1C1CCCC1 (stereo not drawn) [Compound 48] |
| > 90 | 50 to 90 | 43 | 80 |  |  | CN(C)C(=O)c1cc2cnc(Nc3ccc(N4CCN(CCOCCOCCOc5cccc6c5C(=O)N(C5CCC(=O)NC5=O)C6=O)CC4)cn3)nc2n1C1CCCC1 (stereo not drawn) [Compound 19] |
| > 90 | > 90 | 29 | 80 |  | 8100 | CN(C)C(=O)c1cc2cnc(Nc3ccc(N4CCN(CCOCCOCCOCCNc5cccc6c5C(=O)N(C5CCC(=O)NC5=O)C6=O)CC4)cn3)nc2n1C1CCCC1 (stereo not drawn) [Compound 18] |
|  |  |  |  |  | 68700 | CN(C)C(=O)c1cc2cnc(Nc3ccc(N4CCNCC4)cn3)nc2n1C1CCCC1 [Ribociclib, reference compound] |
| 50 to 90 | 50 to 90 | 84 | 82 | 200 |  | CC(=O)c1c(C)c2cnc(Nc3ccc(N4CCN(CCOCCOCCOc5cccc6c5C(=O)N(C5CCC(=O)NC5=O)C6=O)CC4)cn3)nc2n(C2CCCC2)c1=O (stereo not drawn) [Compound 8] |
| > 90 | 50 to 90 |  |  |  |  | CN(C)C(=O)c1cc2cnc(Nc3ccc(N4CCN(CCCCCNC(=O)COc5cccc6c5C(=O)N(C5CCC(=O)NC5=O)C6=O)CC4)cn3)nc2n1C1CCCC1 (stereo not drawn) [Compound 47] |
| 50 to 90 | 50 to 90 |  |  |  |  | CC(=O)c1c(C)c2cnc(Nc3ccc(N4CCN(CCCOCCNc5cccc6c5C(=O)N(C5CCC(=O)NC5=O)C6=O)CC4)cn3)nc2n(C2CCCC2)c1=O (stereo not drawn) [Compound 27] |
| 50 to 90 | 50 to 90 |  |  |  |  | CC(=O)c1c(C)c2cnc(Nc3ccc(N4CCN(CCCCCCNc5cccc6c5C(=O)N(C5CCC(=O)NC5=O)C6=O)CC4)cn3)nc2n(C2CCCC2)c1=O (stereo not drawn) [Compound 26] |
| > 90 | > 90 | 91 | 96 |  |  | CC(=O)c1c(C)c2cnc(Nc3ccc(N4CCN(CCCCOc5cccc6c5C(=O)N(C5CCC(=O)NC5=O)C6=O)CC4)cn3)nc2n(C2CCCC2)c1=O (stereo not drawn) [Compound 24] |
| > 90 | > 90 |  |  |  |  | CC(=O)c1c(C)c2cnc(Nc3ccc(N4CCN(CCCCCNC(=O)COc5cccc6c5C(=O)N(C5CCC(=O)NC5=O)C6=O)CC4)cn3)nc2n(C2CCCC2)c1=O (stereo not drawn) [Compound 38] |
| 50 to 90 | 50 to 90 | 97 | 93 | 160 |  | CC(=O)c1c(C)c2cnc(Nc3ccc(N4CCN(CCOCCOCCOCCOc5cccc6c5C(=O)N(C5CCC(=O)NC5=O)C6=O)CC4)cn3)nc2n(C2CCCC2)c1=O (stereo not drawn) [Compound 21] |
| > 90 | 50 to 90 |  |  |  |  | CN(C)C(=O)c1cc2cnc(Nc3ccc(N4CCN(CCCNC(=O)COc5cccc6c5C(=O)N(C5CCC(=O)NC5=O)C6=O)CC4)cn3)nc2n1C1CCCC1 (stereo not drawn) [Compound 46] |
| 50 to 90 | 50 to 90 |  |  |  |  | CC(=O)c1c(C)c2cnc(Nc3ccc(N4CCN(CCOCCCNc5cccc6c5C(=O)N(C5CCC(=O)NC5=O)C6=O)CC4)cn3)nc2n(C2CCCC2)c1=O (stereo not drawn) [Compound 28] |
| 50 to 90 | 50 to 90 | 25 | 82 |  |  | CN(C)C(=O)c1cc2cnc(Nc3ccc(N4CCN(CCOCCOCCNc5cccc6c5C(=O)N(C5CCC(=O)NC5=O)C6=O)CC4)cn3)nc2n1C1CCCC1 (stereo not drawn) [Compound 17] |
|  |  | 69 | 91 | 220 |  | CC(=O)c1c(C)c2cnc(Nc3ccc(N4CCN(CCOCCOCCNc5cccc6c5C(=O)N(C5CCC(=O)NC5=O)C6=O)CC4)cn3)nc2n(C2CCCC2)c1=O (stereo not drawn) [Compound 15] |
| 50 to 90 | 50 to 90 |  |  |  |  | CN(C)C(=O)c1cc2cnc(Nc3ccc(N4CCN(CCOCCOCCOCCOc5cccc6c5C(=O)N(C5CCC(=O)NC5=O)C6=O)CC4)cn3)nc2n1C1CCCC1 (stereo not drawn) [Compound 20] |
| 50 to 90 | 50 to 90 |  |  |  |  | CC(=O)c1c(C)c2cnc(Nc3ccc(N4CCN(CCCCCCOc5cccc6c5C(=O)N(C5CCC(=O)NC5=O)C6=O)CC4)cn3)nc2n(C2CCCC2)c1=O (stereo not drawn) [Compound 23] |
| 50 to 90 | 50 to 90 | 68 | 97 | 300 |  | CC(=O)c1c(C)c2cnc(Nc3ccc(N4CCN(CCOCCOCCOCCNc5cccc6c5C(=O)N(C5CCC(=O)NC5=O)C6=O)CC4)cn3)nc2n(C2CCCC2)c1=O (stereo not drawn) [Compound 16] |
|  |  | 85 | 92 |  |  | CC(=O)c1c(C)c2cnc(Nc3ccc(N4CCN(S(=O)(=O)CCCCCOc5cccc6c5C(=O)N(C5CCC(=O)NC5=O)C6=O)CC4)cn3)nc2n(C2CCCC2)c1=O (stereo not drawn) [Compound 14] |
